Reference: article PMC10987480, “Biological and mutational analyses of CXCR4–antagonist interactions and design of new antagonistic analogs” (Bioscience Reports, 2023)
Positions of bridges follow the written chain, without caps; N, C: chain ends. Non-standard residues stand in square brackets, D forms with d. Chains are numbered I, II in the order given. No end group written: not given here.

What was measured:
[1] = target: CXCR4 (Homo sapiens, UniProt P61073); test: Competitive CXCR4 binding assay (12G5 antibody probe), wild-type CXCR4 transfected CHO cells; design: expressed in transfected cells; Competitive receptor binding activity, wild-type CXCR4 (WT): key to the marks not given beside the values; details: class relative to wild-type; 12G5 competition, stably transfected CHO cells; averages of at least three independent experiments
Description: The CXCR4-specific antibody, 12G5 was used as a probe for the competitive CXCR4 binding assay to evaluate the binding activity of CXCR4 antagonists.
Figure 1 Competitive CXCR4 binding curves of eleven CXCR4 antagonists The CXCR4 transfected CHO cells were incubated with different concentrations of antagonists and 250 ng/ml 12G5 antibody. The CXCR4-binding 12G5 antibody was recognized by FITC-conjugated anti-IgG second antibody. The cells treated with only second antibody were used as a negative control (0%) while cells treated with both 12G5 antibody and second antibody were used as a positive control (100%). Cells treated with CXCR4 antagonists were calculated in percentage relative to the positive and negative controls. The data were averages of at least three independent experiments and shown as mean ± standard error of the mean (S.E.M.).
(§1) The procedure for the CXCR4 competitive binding experiments was published previously. Briefly, CXCR4 antibody 12G5 (250 ng/ml) was incubated with 5 × 10^5 cells and varying concentrations of unlabeled compounds in a final volume of 100 μl of assay buffer (PBS with 0.5% BSA and 0.05% NaN3) in 96-well plates for 40 min on ice, after being washed with assay buffer once. The cells were incubated with FITC-conjugated second antibody IgG for 30 min on ice, then washed with assay buffer three times. The fluorescence intensity was measured for excitation at 485 nm and emission at 535 nm using multimode plate reader (PerkinElmer). The IC50 values were calculated using graphpad Prism 7. Experiments were performed at least three times.

[2] = target: T1, CXCR4 I259A (Homo sapiens, UniProt P61073, I259A); test: Competitive binding to CXCR4 mutant I259A (12G5, CHO cells); design: key to the marks not given beside the values; details: TM6, class of reduction vs wild-type CXCR4, 12G5 competition, averages of at least three independent experiments
T1 construct: expressed in transfected cells
Description: (§2) Plasmid pcDNA3-CXCR4 and mutated pcDNA3-CXCR4 were extracted and transfected into CHO cells using Lipofectamine 2000 according to the manufacturer’s guidelines. The selective medium containing G418 at a concentration of 1.2 mg/ml was applied to isolate stably transfected cells. CHO cells expressing wild-type CXCR4 and mutant CXCR4 were obtained using fluorescence-activated cell sorting (FACS).
(§3) All of the CXCR4 mutants were prepared using PCR technology. Briefly, pairs of asymmetrical primers containing the desired amino acid mutations (Supplementary Tables S1 and S2), each complementary to opposite strands of the pcDNA3–CXCR4, were designed for amplification by Q5® High-Fidelity DNA polymerase and the generation of mutated constructs. The methylated pcDNA3–CXCR4 templates were digested by DpnI. The mutated pcDNA3–CXCR4 was transformed into competent E. coli TOP10 for long-term storage and amplification.
as §1

[3] = target: T2, CXCR4 H281A (Homo sapiens, UniProt P61073, H281A); test: Competitive binding to CXCR4 mutant H281A (12G5, CHO cells); details: TM7, class of reduction vs wild-type CXCR4, 12G5 competition, averages of at least three independent experiments
T2 construct: expressed in transfected cells
Description: as §2, §3, §1

[4] = target: T3, CXCR4 F87A (Homo sapiens, UniProt P61073, F87A); test: Competitive binding to CXCR4 mutant F87A (12G5, CHO cells); details: TM2, class of reduction vs wild-type CXCR4, 12G5 competition, averages of at least three independent experiments
T3 construct: expressed in transfected cells
Description: as §2, §3, §1

[5] = target: T4, CXCR4 Y116A (Homo sapiens, UniProt P61073, Y116A); test: Competitive binding to CXCR4 mutant Y116A (12G5, CHO cells); details: TM3, class of reduction vs wild-type CXCR4, 12G5 competition, averages of at least three independent experiments
T4 construct: expressed in transfected cells
Description: as §2, §3, §1

[6] = target: T5, CXCR4 E288Q (Homo sapiens, UniProt P61073, E288Q); test: Competitive binding to CXCR4 mutant E288Q (12G5, CHO cells); details: TM7, class of reduction vs wild-type CXCR4, 12G5 competition, averages of at least three independent experiments
T5 construct: expressed in transfected cells
Description: as §2, §3, §1

[7] = target: T6, CXCR4 D171A (Homo sapiens, UniProt P61073, D171A); test: Competitive binding to CXCR4 mutant D171A (12G5, CHO cells); details: TM4, class of reduction vs wild-type CXCR4, 12G5 competition, averages of at least three independent experiments
T6 construct: expressed in transfected cells
Description: as §2, §3, §1

[8] = target: T7, CXCR4 Q200A (Homo sapiens, UniProt P61073, Q200A); test: Competitive binding to CXCR4 mutant Q200A (12G5, CHO cells); design: key to the marks not given beside the values; details: TM5, class of reduction vs wild-type CXCR4, 12G5 competition, averages of at least three independent experiments
T7 construct: expressed in transfected cells
Description: as §2, §3, §1

[9] = target: T8, CXCR4 E288D (Homo sapiens, UniProt P61073, E288D); test: Competitive binding to CXCR4 mutant E288D (12G5, CHO cells); details: TM7, class of reduction vs wild-type CXCR4, 12G5 competition, averages of at least three independent experiments
T8 construct: expressed in transfected cells
Description: as §2, §3, §1

[10] = target: T9, CXCR4 N119A (Homo sapiens, UniProt P61073, N119A); test: Competitive binding to CXCR4 mutant N119A (12G5, CHO cells); details: TM3, class of reduction vs wild-type CXCR4, 12G5 competition, averages of at least three independent experiments
T9 construct: expressed in transfected cells
Description: as §2, §3, §1

[11] = target: T10, CXCR4 R30A (Homo sapiens, UniProt P61073, R30A); test: Competitive binding to CXCR4 mutant R30A (12G5, CHO cells); design: key to the marks not given beside the values; details: TM1, class of reduction vs wild-type CXCR4, 12G5 competition, averages of at least three independent experiments
T10 construct: expressed in transfected cells
Description: as §2, §3, §1

[12] = target: T11, CXCR4 E288A (Homo sapiens, UniProt P61073, E288A); test: Competitive binding to CXCR4 mutant E288A (12G5, CHO cells); details: TM7, class of reduction vs wild-type CXCR4, 12G5 competition, averages of at least three independent experiments
T11 construct: expressed in transfected cells
Description: as §2, §3, §1

[13] = target: T12, CXCR4 W94A (Homo sapiens, UniProt P61073, W94A); test: Competitive binding to CXCR4 mutant W94A (12G5, CHO cells); details: TM2, class of reduction vs wild-type CXCR4, 12G5 competition, averages of at least three independent experiments
T12 construct: expressed in transfected cells
Description: as §2, §3, §1

[14] = target: T13, CXCR4 H113A (Homo sapiens, UniProt P61073, H113A); test: Competitive binding to CXCR4 mutant H113A (12G5, CHO cells); details: TM3, class of reduction vs wild-type CXCR4, 12G5 competition, averages of at least three independent experiments
T13 construct: expressed in transfected cells
Description: as §2, §3, §1

[15] = target: T14, CXCR4 D262N (Homo sapiens, UniProt P61073, D262N); test: Competitive binding to CXCR4 mutant D262N (12G5, CHO cells); details: TM6, class of reduction vs wild-type CXCR4, 12G5 competition, averages of at least three independent experiments
T14 construct: expressed in transfected cells
Description: as §2, §3, §1

[16] = test system: CXCR4; details: read-out: IC50; cited from earlier work
Description: To understand the receptor–ligand recognition mechanism involving CXCR4 and its antagonists, here in this study we conducted a series of comparative analyses of the biological activities and CXCR4 binding sites of eleven known CXCR4 antagonists, including the three mentioned above, using cell-based bioassays, CXCR4 site-directed mutagenesis and computer-aided molecular modeling. These antagonists studied here were chosen from different representative structural types including both D-peptides (i.e., HC4319, DV1, DV1 dimer, and DV3) and a representative counterpart L-peptide (i.e., V1) derived ...

T12 sequence (P61073 whole entry W94A): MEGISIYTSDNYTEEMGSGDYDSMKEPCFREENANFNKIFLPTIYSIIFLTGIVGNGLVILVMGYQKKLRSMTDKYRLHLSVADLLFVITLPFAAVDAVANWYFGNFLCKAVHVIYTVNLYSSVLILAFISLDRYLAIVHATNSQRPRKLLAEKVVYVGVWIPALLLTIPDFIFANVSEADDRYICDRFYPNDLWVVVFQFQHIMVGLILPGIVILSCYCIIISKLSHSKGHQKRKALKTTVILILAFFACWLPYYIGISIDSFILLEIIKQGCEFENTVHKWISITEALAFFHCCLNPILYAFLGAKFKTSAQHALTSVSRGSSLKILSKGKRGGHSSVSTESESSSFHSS
T8 sequence (P61073 whole entry E288D): as the sequence (P61073 whole entry W94A) above, with A94W, E288D counted along it
T7 sequence (P61073 whole entry Q200A): as the sequence (P61073 whole entry W94A) above, with A94W, Q200A counted along it
T14 sequence (P61073 whole entry D262N): as the sequence (P61073 whole entry W94A) above, with A94W, D262N counted along it
T9 sequence (P61073 whole entry N119A): as the sequence (P61073 whole entry W94A) above, with A94W, N119A counted along it
Chain of CXCR4 (Homo sapiens, UniProt P61073) (P61073 whole entry): as the sequence (P61073 whole entry W94A) above, with A94W counted along it
T2 sequence (P61073 whole entry H281A): as the sequence (P61073 whole entry W94A) above, with A94W, H281A counted along it
T6 sequence (P61073 whole entry D171A): as the sequence (P61073 whole entry W94A) above, with A94W, D171A counted along it
T1 sequence (P61073 whole entry I259A): as the sequence (P61073 whole entry W94A) above, with A94W, I259A counted along it
T4 sequence (P61073 whole entry Y116A): as the sequence (P61073 whole entry W94A) above, with A94W, Y116A counted along it
T11 sequence (P61073 whole entry E288A): as the sequence (P61073 whole entry W94A) above, with A94W, E288A counted along it
T3 sequence (P61073 whole entry F87A): as the sequence (P61073 whole entry W94A) above, with F87A, A94W counted along it
T13 sequence (P61073 whole entry H113A): as the sequence (P61073 whole entry W94A) above, with A94W, H113A counted along it
T5 sequence (P61073 whole entry E288Q): as the sequence (P61073 whole entry W94A) above, with A94W, E288Q counted along it
T10 sequence (P61073 whole entry R30A): as the sequence (P61073 whole entry W94A) above, with R30A, A94W counted along it

Substance	Competitive receptor binding activity, wild-type CXCR4 (WT) [1]	Competitive receptor binding activity, CXCR4 I259A [2]	Competitive receptor binding activity, CXCR4 H281A [3]	Competitive receptor binding activity, CXCR4 F87A [4]	Competitive receptor binding activity, CXCR4 Y116A [5]	Competitive receptor binding activity, CXCR4 E288Q [6]	Competitive receptor binding activity, CXCR4 D171A [7]	Competitive receptor binding activity, CXCR4 Q200A [8]	Competitive receptor binding activity, CXCR4 E288D [9]	Competitive receptor binding activity, CXCR4 N119A [10]	Competitive receptor binding activity, CXCR4 R30A [11]	Competitive receptor binding activity, CXCR4 E288A [12]	Competitive receptor binding activity, CXCR4 W94A [13]	Competitive receptor binding activity, CXCR4 H113A [14]	Competitive receptor binding activity, CXCR4 D262N [15]	IC50 [16]
I: [dL]G[dA][dS][dW][dH][dR][dP][dD][dK][dC][dC][dL]G[dY][dQ][dK][dR][dP][dL][dP] / II: [dL]G[dA][dS][dW][dH][dR][dP][dD][dK][dC][dC][dL]G[dY][dQ][dK][dR][dP][dL][dP] (disulfide I:11-II:11, I:12-II:12) [DV1 dimer]	+++	+++	++ (10–29% reduction compared with wild-type CXCR4)	+ (30–60% reduction compared with wild-type CXCR4)	+ (30–60% reduction compared with wild-type CXCR4)	+ (30–60% reduction compared with wild-type CXCR4)	++ (10–29% reduction compared with wild-type CXCR4)	+++	++ (10–29% reduction compared with wild-type CXCR4)	+ (30–60% reduction compared with wild-type CXCR4)	+++	+ (30–60% reduction compared with wild-type CXCR4)	+ (30–60% reduction compared with wild-type CXCR4)	+ (30–60% reduction compared with wild-type CXCR4)	+ (30–60% reduction compared with wild-type CXCR4)	–
LGASWHRPDKCCLGYQKRPLPQVLLSSWYPTSQLCSKPGVIFLTKRGRQVCADKSKDWVKKLMQQLPVTAR [vMIP-II, viral macrophage-inflammatory protein-II, full-length natural chemokine antagonist produced by human herpesvirus-8; recombinant from Peprotech]	+++	+++	+++	+ (30–60% reduction compared with wild-type CXCR4)	++ (10–29% reduction compared with wild-type CXCR4)	++ (10–29% reduction compared with wild-type CXCR4)	+++	+++	+++	++ (10–29% reduction compared with wild-type CXCR4)	+++	+++	+ (30–60% reduction compared with wild-type CXCR4)	+++	+++	5.8 nM
